Source: PMC3815326 (Microbial biotechnology, 2012)
Entries after “also recorded” stand apart in the source; their conditions may differ. Like-named read-outs stand apart in the source and are kept apart here.

Experiments:
TmoS [1] = target: T1, TmoS (Ectopseudomonas mendocina, UniProt Q8KIY1); type: biochemical, Pseudomonas mendocina KR1
TmoS [2] = target: T1, TmoS; experiment: Isothermal titration calorimetry of purified TmoS with effector molecules; type: binding, Pseudomonas mendocina KR1; details: for TΔS / affinity / binding to TmoS, in words / ΔH: TmoS
TodS = details: agonist / antagonist classification, ref Busch et al., 2007, cited from earlier work
TmoS [3] = experiment: Isothermal titration calorimetry of purified TmoS with effector molecules; type: binding, Pseudomonas mendocina KR1; details: TodS values from Busch et al., 2007
T4MO = T4MO substrate; ref Mitchell et al., 2002; cited from earlier work
CitA = details: read-out: KD for CitA; determined by ITC; ref Kaspar et al., 1999; cited from earlier work
[4] = 100 µM effector (saturating), 30 min, 10 µM TmoS, 4°C
[5] = 100 µM effector, time course (Fig. 4B and C)
[6] = ITC, typically 10 µM TmoS titrated with 500 µM effector, pH 7.5

T1 sequence (Q8KIY1 whole entry): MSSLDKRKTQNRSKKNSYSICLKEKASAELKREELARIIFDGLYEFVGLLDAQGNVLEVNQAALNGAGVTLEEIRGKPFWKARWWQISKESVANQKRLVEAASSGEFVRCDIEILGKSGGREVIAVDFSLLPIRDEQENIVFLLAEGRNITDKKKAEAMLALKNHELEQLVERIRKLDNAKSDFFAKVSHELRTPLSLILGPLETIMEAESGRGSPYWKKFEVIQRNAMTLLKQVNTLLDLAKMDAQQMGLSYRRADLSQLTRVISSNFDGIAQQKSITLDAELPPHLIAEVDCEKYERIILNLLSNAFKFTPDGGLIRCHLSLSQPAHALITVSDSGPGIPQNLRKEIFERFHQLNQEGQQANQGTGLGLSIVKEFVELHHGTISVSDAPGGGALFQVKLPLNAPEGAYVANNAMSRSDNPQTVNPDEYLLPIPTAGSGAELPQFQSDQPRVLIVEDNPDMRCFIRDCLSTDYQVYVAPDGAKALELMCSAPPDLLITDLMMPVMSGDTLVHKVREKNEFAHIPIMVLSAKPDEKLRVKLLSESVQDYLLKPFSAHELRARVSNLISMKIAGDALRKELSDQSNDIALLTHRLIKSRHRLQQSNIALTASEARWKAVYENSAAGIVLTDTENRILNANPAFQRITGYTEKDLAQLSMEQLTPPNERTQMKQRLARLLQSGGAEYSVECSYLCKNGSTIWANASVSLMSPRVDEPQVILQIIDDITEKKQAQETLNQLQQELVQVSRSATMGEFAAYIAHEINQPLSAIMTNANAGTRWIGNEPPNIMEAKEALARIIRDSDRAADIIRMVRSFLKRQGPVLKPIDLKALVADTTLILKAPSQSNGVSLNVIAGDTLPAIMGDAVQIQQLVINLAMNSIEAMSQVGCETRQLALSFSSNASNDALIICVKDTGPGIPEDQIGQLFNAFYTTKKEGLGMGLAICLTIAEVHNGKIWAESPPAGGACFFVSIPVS

With `Cc1ccc(C)c(C)c1` [1,2,4 Trimethylbenzene] the “TmoS phosphorylation state in presence of effector versus control” value (TmoS [1]) was “very similar to the control; also recorded: failed to increase”, the Kd (TmoS [2]) was 3460 ± 500 nM and the TΔS (TmoS [2]; ITC) was 5.6 ± 0.2 kcal/mol. For the same molecule, the “affinity / binding to TmoS, in words” value (TmoS [2]; ITC) was “tight binding”, the ΔH (TmoS [2]; ITC) was -1.5 ± 0.2 kcal/mol and the “Effect on TodS” value (TodS) was “Antagonist”.

For `c1ccccc1` [Benzene], the “TmoS phosphorylation state in presence of effector versus control” value (TmoS [1]) was “increased phosphorylation”, the “stimulation of TmoS autokinase activity in kinetics experiment” value (“stimulation of TmoS autokinase activity” below) (TmoS [1]) was “significantly inferior” and the “affinity for TmoS relative to TodS” value (TmoS [3]) was “around 4.5 times”. The Kd (TmoS [2]) was 170 nM, the TΔS (TmoS [2]; ITC) was 3.6 ± 0.1 kcal/mol and the “affinity / binding to TmoS, in words” value (TmoS [2]; ITC) was “nanomolar range”. For the same molecule, the ΔH (TmoS [2]; ITC) was -5.3 ± 0.1 kcal/mol and the “Effect on TodS” value (TodS) was “Agonist”.

In the case of `Clc1ccccc1` [Chlorobenzene], the “TmoS phosphorylation state in presence of effector versus control” value (TmoS [1]) is reported as “increased phosphorylation”, the “affinity for TmoS relative to TodS” value (TmoS [3]) is reported as “comparable” and the Kd (TmoS [2]) is reported as 1250 ± 70 nM. For the same molecule, the ΔH (TmoS [2]; ITC) was -6.9 ± 0.3 kcal/mol and the “Effect on TodS” value (TodS) was “Agonist”.

With `CCc1ccccc1` [Ethylbenzene] the “TmoS phosphorylation state in presence of effector versus control” value (TmoS [1]; [4]) was “increased phosphorylation”, the “affinity for TmoS relative to TodS” value (TmoS [3]) was “tighter” and the TΔS (TmoS [2]; ITC) was 4.1 ± 0.1 kcal/mol. The ΔH (TmoS [2]; ITC) was -3.5 ± 0.1 kcal/mol, the Kd (TmoS [2]; KD, ITC, typically 10 µM TmoS titrated with 500 µM effector, pH 7.5) was 1560 ± 100 nM and the “Effect on TodS” value (TodS) was “Agonist”.

With `O=[N+]([O-])c1ccccc1` [Nitrobenzene] the “affinity for TmoS relative to TodS” value (TmoS [3]) was 29 times, the Kd (TmoS [2]) was 230 ± 30 nM and the TΔS (TmoS [2]; ITC) was 4.5 ± 0.1 kcal/mol. The “affinity / binding to TmoS, in words” value (TmoS [2]; ITC) was “nanomolar range”, the ΔH (TmoS [2]; ITC) was -4.1 ± 0.1 kcal/mol and the “Effect on TodS” value (TodS) was “Agonist”.

For `C=Cc1ccccc1` [Styrene], the “affinity for TmoS relative to TodS” value (TmoS [3]) was “comparable”, the Kd (TmoS [2]) was 810 ± 100 nM and the TΔS (TmoS [2]; ITC) was 3.3 ± 0.3 kcal/mol. For the same molecule, the “affinity / binding to TmoS, in words” value (TmoS [2]; ITC) was “nanomolar range”, the ΔH (TmoS [2]; ITC) was -4.8 ± 0.3 kcal/mol and the “Effect on TodS” value (TodS) was “Agonist”.

For `Cc1ccccc1` [Toluene], the “TmoS phosphorylation state in presence of effector versus control” value (TmoS [1]; [4]) was “most pronounced increase”, the “TmoS phosphorylation state in presence of effector versus control” value (TmoS [1]; 100 µM effector (saturating), 30 min, 10 µM TmoS, 4°C, listed as toluene) was “increased phosphorylation” and the “time of maximal TmoS phosphorylation” value (TmoS [1]; 100 µM effector, kinetics of autophosphorylation) was 40 min. For the same molecule, the “stimulation of TmoS autokinase activity” value (TmoS [1]; [5]) was “most pronounced increase”, the TΔS (TmoS [2]; ITC) was 2.4 ± 0.1 kcal/mol and the ΔH (TmoS [2]; ITC) was -6.5 ± 0.1 kcal/mol. For the same molecule, the Km (T4MO) was 4 µM.

For `O=C(O)CC(O)(CC(=O)O)C(=O)O` [citrate], the Kd (CitA) is listed as 5500 nM.

With `C1CCCCC1` [cyclohexane] the TΔS (TmoS [2]; ITC) was “No binding”, the “affinity / binding to TmoS, in words” value (TmoS [2]; ITC) was “failed to bind” and the ΔH (TmoS [2]; ITC) was “No binding”. The KA (TmoS [2]; [6]) was “No binding”, the KD (TmoS [2]; [6]) was “No binding” and the “Effect on TodS” value (TodS) was “No binding”.

`Cc1cccc(Cl)c1` [m‐Chlorotoluene] gave a Kd (TmoS [2]) of 2070 ± 600 nM, a TΔS (TmoS [2]; ITC) of 1.5 ± 0.8 kcal/mol and a ΔH (TmoS [2]; ITC) of -5.9 ± 0.9 kcal/mol. The “Effect on TodS” value (TodS) was “Agonist”.

For `Cc1cccc(C)c1` [m‐xylene], the Kd (TmoS [2]) is given as 710 ± 90 nM, the TΔS (TmoS [2]; ITC) is given as 1.1 ± 0.6 kcal/mol and the “Effect on TodS” value (TodS) is given as “Agonist”.

For `Cc1ccccc1Cl` [o‐Chlorotoluene], the “TmoS phosphorylation state in presence of effector versus control” value (TmoS [1]; [4]) was “very similar to the control; also recorded: failed to increase; also recorded: did not trigger an increase”, the TΔS (TmoS [2]; ITC) was 2.4 ± 0.9 kcal/mol and the ΔH (TmoS [2]; ITC) was -5.1 ± 0.9 kcal/mol. For the same molecule, the Kd (TmoS [2]; [6]) was 2140 ± 400 nM, the “Effect on TodS” value (TodS) was “Antagonist” and the “Effect on TodS” value (TodS; listed as o‐chlorotoluene) was “antagonists”.

For `Cc1ccccc1C` [o‐xylene], the “TmoS phosphorylation state in presence of effector versus control” value (TmoS [1]; [4]) was “very similar to the control; also recorded: failed to increase; also recorded: did not trigger an increase”, the Kd (TmoS [2]) was 290 ± 10 nM and the ΔH (TmoS [2]; ITC) was -8.9 ± 0.1 kcal/mol. For the same molecule, the “Effect on TodS” value (TodS) was “Antagonist” and the “Effect on TodS” value (TodS; listed as o‐ xylene) was “antagonists”.

With `Cc1ccc(Cl)cc1` [p‐Chlorotoluene] the TΔS (TmoS [2]; ITC) was 5.3 ± 0.1 kcal/mol, the “affinity / binding to TmoS, in words” value (TmoS [2]; ITC) was “nanomolar range” and the ΔH (TmoS [2]; ITC) was -2.7 ± 0.1 kcal/mol. For the same molecule, the “Effect on TodS” value (TodS) was “Agonist”.

`Cc1ccc(C)cc1` [p‐xylene] gave a Kd (TmoS [2]) of 460 ± 50 nM, a TΔS (TmoS [2]; ITC) of 4.9 ± 0.29 kcal/mol and a ΔH (TmoS [2]; ITC) of -3.4 ± 0.3 kcal/mol. For the same molecule, the “Effect on TodS” value (TodS) was “Agonist”.

In the case of chlorotoluene, the “stimulation of TmoS autokinase activity” value (TmoS [1]; [5]) is reported as “significantly inferior”.
